Experimental data taken from US20240360194A1, “New Peptides as Potent and Selective GIP Receptor Agonists” (Sanofi, priority 2021, published 2024).
Numbered stars: 1 amine (or outer) side, 2 acyl side, 3 side chain; on linkers, the order of the positions; unused ones are H or OH. Square brackets hold non-standard residues; d marks the D form. Side chains are listed from the residue outwards. Peptide text beside a SMILES is read from it. * marks the point of attachment. C18 diacid = O=C(O)CCCCCCCCCCCCCCCCC(=O)*; γGlu = O=C(O)[C@H](CCC(=O)[*:2])N[*:1]; AEEA = NCCOCCOCC(=O)O; Aib = CC(C)(N)C(=O)O

Experiments:
[1] = molecular target: T1, human GLP-1 receptor (hGLP-1R) (Homo sapiens, UniProt P43220); assay: Binding assay, displacement of [125I]GLP-1 from HEK-293 membranes over-expressing GLP-1R (SPA); conditions: [125I]GLP-1 displacement
T1 sequence (P43220 24-463): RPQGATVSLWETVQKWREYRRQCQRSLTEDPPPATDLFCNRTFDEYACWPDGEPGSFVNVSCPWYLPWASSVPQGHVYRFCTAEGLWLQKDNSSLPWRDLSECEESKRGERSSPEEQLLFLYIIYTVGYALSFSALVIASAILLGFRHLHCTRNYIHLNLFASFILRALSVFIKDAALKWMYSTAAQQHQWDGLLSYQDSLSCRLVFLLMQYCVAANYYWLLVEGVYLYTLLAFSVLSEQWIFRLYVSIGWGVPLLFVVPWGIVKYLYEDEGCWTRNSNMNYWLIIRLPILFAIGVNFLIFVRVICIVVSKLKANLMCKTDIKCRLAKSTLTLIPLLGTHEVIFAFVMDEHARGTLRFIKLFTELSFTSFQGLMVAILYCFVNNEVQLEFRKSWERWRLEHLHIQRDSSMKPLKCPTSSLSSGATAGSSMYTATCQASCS
Method in brief: (§1)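 Membranes from HEK-293 cells over-expressing human GIPR or GLP-1R, isolated by homogenising, sonicating and ultracentrifuging at 100000×g into HEPES/EDTA/NaCl buffer with protease inhibitors, were used for binding.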

human GIP receptor = molecular target: T2, human GIP receptor (Homo sapiens, UniProt P48546); assay: In vitro cellular cAMP assay for GIP receptor efficacy (human adipocytes); format: cell-based; conditions: for EC50: read-out: hGIPR EC50; for Emax: read-out: hGIPR Emax
T2 construct: human adipocytes endogenously expressing the human GIP receptor; host or cells: human preadipocytes (Lonza) differentiated to adipocytes
T2 sequence (P48546 22-466): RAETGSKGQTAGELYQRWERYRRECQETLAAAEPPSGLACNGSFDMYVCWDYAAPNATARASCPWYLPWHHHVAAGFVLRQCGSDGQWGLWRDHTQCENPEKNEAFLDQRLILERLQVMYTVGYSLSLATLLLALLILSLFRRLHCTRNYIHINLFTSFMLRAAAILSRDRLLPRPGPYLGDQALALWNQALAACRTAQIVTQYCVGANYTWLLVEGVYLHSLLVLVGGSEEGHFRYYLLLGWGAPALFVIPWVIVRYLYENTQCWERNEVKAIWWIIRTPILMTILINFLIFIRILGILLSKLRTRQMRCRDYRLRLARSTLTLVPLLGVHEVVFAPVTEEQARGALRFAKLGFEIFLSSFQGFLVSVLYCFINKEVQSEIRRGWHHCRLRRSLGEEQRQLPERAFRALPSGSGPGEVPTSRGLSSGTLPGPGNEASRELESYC
Method in brief: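 cAMP is read by HTRF (665/620 nm ratio, 1 h after reagents in lysis buffer) following 30 min compound exposure at room temperature. Cells are human preadipocyte-derived adipocytes, differentiated 6 days with insulin, dexamethasone, IBMX (200 μM), PPARγ agonist and L-thyroxine, seeded 5000 per well.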

[2] = ThT assay for the assessment of physical stability (fibrillation); format: physicochemical; conditions: ThT buffer system A: 100 mM phosphate buffer pH 7.4; 3 mg/ml, 37° C., shaking
Text: Low physical stability of a peptide solution may lead to amyloid fibril formation, which is observed as well-ordered, thread-like macromolecular structures in the sample, which eventually may lead to gel formation. Thioflavin T (ThT) is widely used to visualize and quantify the presence of misfolded protein aggregates [Biancalana et al., Biochim. Biophys. Acta 2010, 1804(7), 1405]. […] Enzymol. 1999, 309, 274]. The time course for fibril formation often follows the characteristic shape of a sigmoidal curve and can be separated into three regions: a lag phase, a fast growth phase, and a plateau phase. The typical fibril formation process starts with the lag phase in which the amount of partially folded peptide turned into fibrils is not significant enough to be detected. The lag-time corresponds to the time the critical mass of the nucleus is built. Afterwards, a drastic elongation phase follows, and fibril concentration increases rapidly. Investigations were carried out to determine fibrillation tendencies under stress conditions by shaking at 37° C. within Fluoroskan Ascent FL or Fluoroskan Ascent. For the tests in Fluoroskan Ascent (FL), 200 μl sample were placed into a 96-well mictrotiter plate PS, flat bottom, Greiner Fluotrac No. 655076. Plates were sealed with Scotch Tape (Qiagen). Samples were stressed by continuous cycles of 10 sec shaking at 960 rpm and 50 sec rest period at 37° C. The kinetic was monitored by measuring fluorescence intensity every 20 min. Peptides were diluted in a buffer system to a final concentration of 3 mg/ml. 20 μl of a 10.1 mM ThT solution in H2O were added to 2 ml of peptide solution to receive a final concentration of 100 μM ThT. For each sample eight replicates were tested. • ThT buffer system A) 100 mM phosphate buffer pH 7.4 • ThT buffer system B) 100 mM phosphate buffer pH 7.4, 2.7 mg/ml m-cresol Lag time in hours (h) in Thioflavin T (ThT) assay of peptide samples was determined in ThT buffer system A as described in Methods.

[3] = molecular target: T3, human GIP receptor (hGIPR) (Homo sapiens, UniProt P48546); assay: Binding assay, displacement of [125I]GIP from HEK-293 membranes over-expressing GIPR (SPA); conditions: [125I]GIP displacement
T3 sequence (P48546 22-466): T2 sequence (P48546 22-466)
Method in brief: as §1

[4] = molecular target: T1, human GLP-1 receptor (hGLP-1R); assay: In vitro cellular cAMP assay for GLP-1 receptor efficacy (HEK-293 cell line over-expressing receptor); format: cell-based; conditions: HEK-293, 0.1% BSA

| IC50 [1] | EC50 (human GIP receptor) | Emax (human GIP receptor) | Increase in FI [2] | Lag time before increase [2] | IC50 [3] | EC50 [4] | Structure (SMILES) |
| --- | --- | --- | --- | --- | --- | --- | --- |
| 156 nM | 1 nM | 121% | no | >45 h | 0.5 nM | > 10 nM | CC[C@H](C)[C@H](NC(=O)[C@H](CCCNC(=N)N)NC(=O)[C@H](CC(=O)O)NC(=O)[C@H](CCCCNC(=O)COCCOCCNC(=O)COCCOCCNC(=O)CC[C@H](NC(=O)CCCCCCCCCCCCCCCCC(=O)O)C(=O)O)NC(=O)C(C)(C)NC(=O)[C@@H](NC(=O)[C@H](CO)NC(=O)[C@H](CC(C)C)NC(=O)[C@H](CC(=O)O)NC(=O)[C@H](CO)NC(=O)[C@@H](NC(=O)[C@H](Cc1ccccc1)NC(=O)[C@@H](NC(=O)CNC(=O)[C@H](CCC(=O)O)NC(=O)C(C)(C)NC(=O)[C@@H](N)Cc1ccc(O)cc1)[C@@H](C)O)[C@@H](C)CC)[C@@H](C)CC)C(=O)N[C@@H](Cc1c[nH]cn1)C(=O)N[C@@H](CCC(N)=O)C(=O)NC(C)(C)C(=O)N[C@@H](CCC(=O)O)C(=O)N[C@@H](Cc1ccccc1)C(=O)N[C@H](C(=O)N[C@@H](CCC(=O)O)C(=O)N[C@@H](Cc1c[nH]c2ccccc12)C(=O)N[C@@H](CC(C)C)C(=O)N[C@@H](CC(C)C)C(=O)N[C@@H](C)C(=O)N[C@@H](CCC(N)=O)C(=O)N[C@@H](CCCNC(=N)N)C(=O)NCC(N)=O)[C@@H](C)CC [SEQ ID NO: 6, H2N-Y-Aib-E-G-T-F-I-S-D-L-S-I-Aib-K[{AEEA}2-gGlu-C18OH]-D-R-I-H-Q-Aib-E-F-I-E-W-L-L-A-Q-R-G-NH2] |
| 308 nM | 2.4 nM | 134% | no | >45 h | 1.5 nM | > 1 nM | CC[C@H](C)[C@H](NC(=O)[C@H](Cc1ccccc1)NC(=O)[C@H](CCC(=O)O)NC(=O)[C@H](CCC(=O)O)NC(=O)[C@H](CCC(N)=O)NC(=O)[C@H](Cc1c[nH]cn1)NC(=O)[C@@H](NC(=O)[C@H](CCCNC(=N)N)NC(=O)[C@H](CC(=O)O)NC(=O)[C@H](CCCCNC(=O)COCCOCCNC(=O)COCCOCCNC(=O)CC[C@H](NC(=O)CCCCCCCCCCCCCCCCC(=O)O)C(=O)O)NC(=O)C(C)(C)NC(=O)[C@@H](NC(=O)[C@H](CO)NC(=O)[C@H](CC(C)C)NC(=O)[C@H](CC(=O)O)NC(=O)[C@H](CO)NC(=O)[C@@H](NC(=O)[C@H](Cc1ccccc1)NC(=O)[C@@H](NC(=O)CNC(=O)[C@H](CCC(=O)O)NC(=O)C(C)(C)NC(=O)[C@@H](N)Cc1ccc(O)cc1)[C@@H](C)O)[C@@H](C)CC)[C@@H](C)CC)[C@@H](C)CC)C(=O)N[C@@H](CCC(=O)O)C(=O)N[C@@H](Cc1c[nH]c2ccccc12)C(=O)N[C@@H](CC(C)C)C(=O)N[C@@H](CC(C)C)C(=O)N[C@@H](C)C(=O)N[C@@H](CCC(N)=O)C(=O)N[C@@H](CCCNC(=N)N)C(=O)NCC(N)=O [SEQ ID NO: 4, H2N-Y-Aib-E-G-T-F-I-S-D-L-S-I-Aib-K[{AEEA}2-gGlu-C18OH]-D-R-I-H-Q-E-E-F-I-E-W-L-L-A-Q-R-G-NH2] |
| 174 nM | 0.6 nM | 91% | no | >45 h | 0.1 nM | > 10 nM | CC[C@H](C)[C@H](NC(=O)[C@H](CCCNC(=N)N)NC(=O)[C@H](CC(=O)O)NC(=O)[C@H](CCCCNC(=O)COCCOCCNC(=O)COCCOCCNC(=O)CC[C@H](NC(=O)CCCCCCCCCCCCCCCCC(=O)O)C(=O)O)NC(=O)C(C)(C)NC(=O)[C@@H](NC(=O)[C@H](CO)NC(=O)[C@H](CC(C)C)NC(=O)[C@H](CC(=O)O)NC(=O)[C@H](CO)NC(=O)[C@@H](NC(=O)[C@@](C)(CC)NC(=O)[C@@H](NC(=O)CNC(=O)[C@H](CCC(=O)O)NC(=O)C(C)(C)NC(=O)[C@@H](N)Cc1ccc(O)cc1)[C@@H](C)O)[C@@H](C)CC)[C@@H](C)CC)C(=O)N[C@@H](Cc1c[nH]cn1)C(=O)N[C@@H](CCC(N)=O)C(=O)NC(C)(C)C(=O)N[C@@H](CCC(=O)O)C(=O)N[C@@H](Cc1ccccc1)C(=O)N[C@H](C(=O)N[C@@H](CCC(=O)O)C(=O)N[C@@H](Cc1c[nH]c2ccccc12)C(=O)N[C@@H](CC(C)C)C(=O)N[C@@H](CC(C)C)C(=O)N[C@@H](C)C(=O)N[C@@H](CCC(N)=O)C(=O)N[C@@H](CCCNC(=N)N)C(=O)NCC(N)=O)[C@@H](C)CC [SEQ ID NO: 16, H2N-Y-Aib-E-G-T-Iva-I-S-D-L-S-I-Aib-K[{AEEA}2-gGlu-C18OH]-D-R-I-H-Q-Aib-E-F-I-E-W-L-L-A-Q-R-G-NH2] |
| 495 nM | 0.8 nM | 109% | no | >45 h | 0.2 nM | > 10 nM | CC[C@H](C)[C@H](NC(=O)[C@H](Cc1ccccc1)NC(=O)[C@H](CCC(=O)O)NC(=O)[C@H](CCC(=O)O)NC(=O)[C@H](CCC(N)=O)NC(=O)[C@H](Cc1c[nH]cn1)NC(=O)[C@@H](NC(=O)[C@H](CCCNC(=N)N)NC(=O)[C@H](CC(=O)O)NC(=O)[C@H](CCCCNC(=O)COCCOCCNC(=O)COCCOCCNC(=O)CC[C@H](NC(=O)CCCCCCCCCCCCCCCCC(=O)O)C(=O)O)NC(=O)C(C)(C)NC(=O)[C@@H](NC(=O)[C@H](CO)NC(=O)[C@H](CC(C)C)NC(=O)[C@H](CC(=O)O)NC(=O)[C@H](CO)NC(=O)[C@@H](NC(=O)[C@@](C)(CC)NC(=O)[C@@H](NC(=O)CNC(=O)[C@H](CCC(=O)O)NC(=O)C(C)(C)NC(=O)[C@@H](N)Cc1ccc(O)cc1)[C@@H](C)O)[C@@H](C)CC)[C@@H](C)CC)[C@@H](C)CC)C(=O)N[C@@H](CCC(=O)O)C(=O)N[C@@H](Cc1c[nH]c2ccccc12)C(=O)N[C@@H](CC(C)C)C(=O)N[C@@H](CC(C)C)C(=O)N[C@@H](C)C(=O)N[C@@H](CCC(N)=O)C(=O)N[C@@H](CCCNC(=N)N)C(=O)NCC(N)=O [SEQ ID NO: 15, H2N-Y-Aib-E-G-T-Iva-I-S-D-L-S-I-Aib-K[{AEEA}2-gGlu-C18OH]-D-R-I-H-Q-E-E-F-I-E-W-L-L-A-Q-R-G-NH2] |

| Structure (SMILES) | IC50 [1] | EC50 (human GIP receptor) | Emax (human GIP receptor) | Increase in FI [2] | Lag time before increase [2] | IC50 [3] | EC50 [4] |
| --- | --- | --- | --- | --- | --- | --- | --- |
| CC[C@H](C)[C@H](NC(=O)[C@H](Cc1ccccc1)NC(=O)[C@H](CCC(=O)O)NC(=O)[C@H](CCC(=O)O)NC(=O)[C@H](CCC(N)=O)NC(=O)[C@H](Cc1c[nH]cn1)NC(=O)[C@@H](NC(=O)[C@H](CCCNC(=N)N)NC(=O)[C@H](CC(=O)O)NC(=O)[C@H](CCCCNC(=O)COCCOCCNC(=O)COCCOCCNC(=O)CC[C@H](NC(=O)CCCCCCCCCCCCCCCCC(=O)O)C(=O)O)NC(=O)C(C)(C)NC(=O)[C@@H](NC(=O)[C@H](CO)NC(=O)[C@H](CC(C)C)NC(=O)[C@H](CC(=O)O)NC(=O)[C@H](CO)NC(=O)[C@@H](NC(=O)[C@H](Cc1ccccc1)NC(=O)[C@@H](NC(=O)CNC(=O)[C@H](CCC(=O)O)NC(=O)C(C)(C)NC(=O)[C@@H](N)Cc1ccc(O)cc1)[C@@H](C)O)[C@@H](C)CC)[C@@H](C)CC)[C@@H](C)CC)C(=O)N[C@@H](CCC(N)=O)C(=O)N[C@@H](Cc1c[nH]c2ccccc12)C(=O)N[C@@H](CC(C)C)C(=O)N[C@@H](CC(C)C)C(=O)N[C@@H](C)C(=O)N[C@@H](CCC(N)=O)C(=O)NCC(=O)N1CCC[C@H]1C(=O)N[C@@H](CO)C(=O)N[C@@H](CO)C(=O)NCC(=O)N[C@@H](C)C(=O)N1CCC[C@H]1C(=O)N1CCC[C@H]1C(=O)N1CCC[C@H]1C(=O)N[C@@H](CO)C(N)=O [SEQ ID NO: 35, H2N-Y-Aib-E-G-T-F-I-S-D-L-S-I-Aib-K[{AEEA}2-gGlu-C18OH]-DRIHQEEFIQWLLAQGPSSGAPPPS-NH2] (H-Y[Aib]EGTFISDLSI[Aib]K([AEEA-AEEA-γGlu-C18 diacid])DRIHQEEFIQWLLAQGPSSGAPPPS-NH2) | > 100 nM | 1.3 nM | 120% | no | >45 h | 0.6 nM | > 10 nM |
